Laboratory results published in article PMC11597353, “Synthesis of Novel Gefitinib-Conjugated 1,2,3-Triazole Derivatives and Their Effect of Inducing DNA Damage and Apoptosis in Tumor Cells” (Molecules, 2024).
Like-named read-outs stand apart in the source and are kept apart here.

Key:
[1] = tested on: HepG2 cells; test: CCK8 cell viability / IC50 assay on HepG2 cells; details: for % Cell Viability (10 μM): 72 h; for IC50: read-out: HepG2, IC50 (μM) 72 h
[2] = tested on: HepG2 cells; set-up: method as in PMID 32745759; details: read-out: IC50, growth of HepG2 cells; cited from earlier work
[3] = tested on: HepG2 cells; set-up: method as in PMID 34237623, PMID 38675717; details: read-out: IC50, inhibitory activity against HepG2 cells; cited from earlier work
[4] = tested on: MCF-7; set-up: method as in PMID 31078767; details: MCF-7, MTT method; cited from earlier work
[5] = tested on: MOLT-4; set-up: method as in PMID 31078767; details: MOLT-4, MTT method; cited from earlier work
[6] = tested on: HT-29; set-up: method as in PMID 31078767; details: HT-29, MTT method; cited from earlier work
[7] = tested on: breast cancer cells (MDA-MB-468); set-up: method as in PMID 31586710; details: 2.5 μM; cited from earlier work
[8] = tested on: VEGFR-2; set-up: method as in PMID 37611529; details: cited from earlier work
[9] = tested on: EGFR T790M; set-up: method as in PMID 37611529; details: cited from earlier work

SMILES | melting point [°C] | % Cell Viability (10 μM) [1] [%] | IC50 [1] [µM] | other results
COc1cc2ncnc(Nc3cccc(-c4cn(Cc5ccc(Br)cc5)nn4)c3)c2cc1OCCCN1CCOCC1 [Compound 11a, N-(3-(1-(4-bromobenzyl)-1H-1,2,3-triazol-4-yl)phenyl)-7-methoxy-6-(3-morpholinopropoxy)quinazolin-4-amine] | 177 to 178 | 7.07 ± 0.49 | 5.49 ± 0.21 | 
COc1cc2ncnc(Nc3cccc(-c4cn(Cc5cc(C)cc(C)c5)nn4)c3)c2cc1OCCCN1CCOCC1 [Compound 11q, N-(3-(1-(3,5-dimethylbenzyl)-1H-1,2,3-triazol-4-yl)phenyl)-7-methoxy-6-(3-morpholinopropoxy)quinazolin-4-amine] | 172 to 173 | 7.14 ± 0.95 | 5.38 ± 0.57 | 
COc1cc2ncnc(Nc3cccc(-c4cn(Cc5ccc(F)c(Cl)c5)nn4)c3)c2cc1OCCCN1CCOCC1 [Compound 11g, N-(3-(1-(3-chloro-4-fluorobenzyl)-1H-1,2,3-triazol-4-yl)phenyl)-7-methoxy-6-(3-morpholinopropoxy)quinazolin-4-amine] | 179 to 181 | 6.50 ± 0.88 | 5.23 ± 0.2 | 
COc1cc2ncnc(Nc3cccc(-c4cn(Cc5ccc(C)cc5)nn4)c3)c2cc1OCCCN1CCOCC1 [Compound 11d, 7-methoxy-N-(3-(1-(4-methylbenzyl)-1H-1,2,3-triazol-4-yl)phenyl)-6-(3-morpholinopropoxy)quinazolin-4-amine] | 168 to 169 | 36.48 ± 2.89 |  | 
COc1cc(Cn2cc(-c3cccc(Nc4ncnc5cc(OC)c(OCCCN6CCOCC6)cc45)c3)nn2)cc(OC)c1 [Compound 11s, N-(3-(1-(3,5-dimethoxybenzyl)-1H-1,2,3-triazol-4-yl)phenyl)-7-methoxy-6-(3-morpholinopropoxy)quinazolin-4-amine] | 167 to 170 | 22.89 ± 1.97 |  | 
COc1cc2ncnc(Nc3cccc(-c4cn(Cc5ccc(C(F)(F)F)cc5)nn4)c3)c2cc1OCCCN1CCOCC1 [Compound 11l, 7-methoxy-6-(3-morpholinopropoxy)-N-(3-(1-(4-(trifluoromethyl)benzyl)-1H-1,2,3-triazol-4-yl)phenyl)quinazolin-4-amine] |  | 5.85 ± 1.15 | 4.53 ± 0.37 | 
COc1cc2ncnc(Nc3cccc(-c4cn(Cc5cc(Br)cc(Br)c5)nn4)c3)c2cc1OCCCN1CCOCC1 [Compound 11c, N-(3-(1-(3,5-dibromobenzyl)-1H-1,2,3-triazol-4-yl)phenyl)-7-methoxy-6-(3-morpholinopropoxy)quinazolin-4-amine] |  | 37.72 ± 2.38 |  | 
COc1cc2ncnc(Nc3cccc(-c4cn(Cc5ccccc5C)nn4)c3)c2cc1OCCCN1CCOCC1 [Compound 11p, 7-methoxy-N-(3-(1-(2-methylbenzyl)-1H-1,2,3-triazol-4-yl)phenyl)-6-(3-morpholinopropoxy)quinazolin-4-amine] | 169 to 171 | 17.36 ± 1.24 | 10.1 ± 0.14 | 
COc1cc2ncnc(Nc3cccc(-c4cn(Cc5c(F)cccc5Cl)nn4)c3)c2cc1OCCCN1CCOCC1 [Compound 11h, N-(3-(1-(2-chloro-6-fluorobenzyl)-1H-1,2,3-triazol-4-yl)phenyl)-7-methoxy-6-(3-morpholinopropoxy)quinazolin-4-amine] | 177 to 180 | 6.80 ± 0.14 | 3.91 ± 0.08 | 
Cc1cc(C)nc(NS(=O)(=O)c2ccc(-n3cc(CCc4nc5ccccc5s4)nn3)cc2)n1 [Compound 4] |  |  |  | IC50 [2]: 1.49 µM
COc1cc2ncnc(Nc3cccc(-c4cn(Cc5ccccc5F)nn4)c3)c2cc1OCCCN1CCOCC1 [Compound 11k, N-(3-(1-(2-fluorobenzyl)-1H-1,2,3-triazol-4-yl)phenyl)-7-methoxy-6-(3-morpholinopropoxy)quinazolin-4-amine] | 184 to 186 | 14.72 ± 2.29 | 6.21 ± 0.24 | 
COc1cc2ncnc(Nc3cccc(-c4cn(Cc5ccccc5C#N)nn4)c3)c2cc1OCCCN1CCOCC1 [Compound 11b, 2-((4-(3-((7-methoxy-6-(3-morpholinopropoxy)quinazolin-4-yl)amino)phenyl)-1H-1,2,3-triazol-1-yl)methyl)benzonitrile] | 167 to 168 | 59.50 ± 2.74 |  | 
COc1cc2ncnc(Nc3cccc(-c4cn(Cc5ccc(Cl)cc5)nn4)c3)c2cc1OCCCN1CCOCC1 [Compound 11o, N-(3-(1-(4-chlorobenzyl)-1H-1,2,3-triazol-4-yl)phenyl)-7-methoxy-6-(3-morpholinopropoxy)quinazolin-4-amine] | 165 to 167 | 8.06 ± 0.88 | 5.14 ± 0.25 | 
COc1cc(C(=O)c2nc3ccccc3c(=O)[nH]2)cc(OC)c1OC [Compound 8] |  |  |  | IC50 [3]: 1.22 µM
COc1cc2ncnc(Nc3cccc(-c4cn(Cc5cc(F)ccc5C#N)nn4)c3)c2cc1OCCCN1CCOCC1 [Compound 11r, 4-fluoro-2-((4-(3-((7-methoxy-6-(3-morpholinopropoxy)quinazolin-4-yl)amino)phenyl)-1H-1,2,3-triazol-1-yl)methyl)benzonitrile] | 164 to 166 | 9.11 ± 1.63 | 6.68 ± 0.11 | 
COc1cc2ncnc(Nc3cccc(-c4cn(Cc5ccc(Br)cc5F)nn4)c3)c2cc1OCCCN1CCOCC1 [Compound 11f, N-(3-(1-(4-bromo-2-fluorobenzyl)-1H-1,2,3-triazol-4-yl)phenyl)-7-methoxy-6-(3-morpholinopropoxy)quinazolin-4-amine] | 169 to 170 | 5.72 ± 0.40 | 5.15 ± 0.31 | 
COc1cc2ncnc(Nc3cccc(-c4cn(Cc5ccccc5[N+](=O)[O-])nn4)c3)c2cc1OCCCN1CCOCC1 [Compound 11i, 7-methoxy-6-(3-morpholinopropoxy)-N-(3-(1-(2-nitrobenzyl)-1H-1,2,3-triazol-4-yl)phenyl)quinazolin-4-amine] |  | 70.10 ± 3.40 |  | 
COc1cc2ncnc(Nc3cccc(-c4cn(Cc5cccc(Cl)c5)nn4)c3)c2cc1OCCCN1CCOCC1 [Compound 11n, N-(3-(1-(3-chlorobenzyl)-1H-1,2,3-triazol-4-yl)phenyl)-7-methoxy-6-(3-morpholinopropoxy)quinazolin-4-amine] | 164 to 165 | 7.68 ± 0.34 | 6.1 ± 0.06 | 
O=C1C=C(NCc2cn(Cc3ccc(C(F)(F)F)cc3)nn2)C(=O)c2ccccc21 [Compound 2] |  |  |  | IC50 [4]: 10.4 µM; IC50 [5]: 8.4 µM; IC50 [6]: 6.8 µM
O=C(C1=Cc2cc3ccccc3n2Cc2cnnn21)c1ccccc1 [Compound 3] |  |  |  | colony formation in breast cancer cells (MDA-MB-468) [7]: completely inhibited
COc1cc2ncnc(Nc3cccc(-c4cn(Cc5cc(F)ccc5Br)nn4)c3)c2cc1OCCCN1CCOCC1 [Compound 11e, N-(3-(1-(2-bromo-5-fluorobenzyl)-1H-1,2,3-triazol-4-yl)phenyl)-7-methoxy-6-(3-morpholinopropoxy)quinazolin-4-amine] |  | 7.03 ± 0.16 | 4.04 ± 0.21 | 
COc1cc2ncnc(Nc3cccc(-c4cn(Cc5ccc([N+](=O)[O-])cc5)nn4)c3)c2cc1OCCCN1CCOCC1 [Compound 11j, 7-methoxy-6-(3-morpholinopropoxy)-N-(3-(1-(4-nitrobenzyl)-1H-1,2,3-triazol-4-yl)phenyl)quinazolin-4-amine] | 171 to 173 | 47.33 ± 2.17 |  | 
COc1cc2ncnc(Nc3ccc(F)c(Cl)c3)c2cc1OCCCN1CCOCC1 [Gefitinib] |  | 31.03 ± 2.42 |  | 
NS(=O)(=O)c1ccc(-n2c(SCC(=O)Nc3cccc4ccccc34)nc3ccc(I)cc3c2=O)cc1 [Compound 7] |  |  |  | IC50 [8]: 0.0523 µM; IC50 [9]: 0.0728 µM
